Laboratory results published in patent publication US20200237800A1, “METHODS AND COMPOSITIONS FOR THE TREATMENT OF INFLAMMATORY DISEASE” (THE BRIGHAM AND WOMEN'S HOSPITAL, INC., priority 2017, published 2020).
Strand notation (5' to 3'): a small letter for the sugar, then the base; units joined by * are phosphorothioate-linked, units joined directly phosphodiester-linked; [ ] holds rarer units or linkages, { } end groups; capitals alone tell only the bases. d = 2'-deoxy (DNA); m = 2'-O-methyl; r = 2'-OH (RNA)

Assays:
[1] = system: human PBMC-derived macrophages; experiment: Cytokine/chemokine mRNA (RT-PCR) and protein (ELISA) in LPS-activated human PBMC-derived macrophages after lnc-FAM164A1 silencing; assay type: cell-based; settings: for TNF-α mRNA: FIG. 11E
Protocol: (§1) Silencing of lnc-FAM164A1 by antisense and si-RNA oligonucleotides on human PBMC-derived macrophages. Lnc-FAM164A1 RNA silencing was performed on human PBMC-derived macrophagesas using SilenceMag (BOCA Scientific, Boca Raton, Fla.) at final concentration of 50-100 nM.32 36-48 hours after transfection, macrophages were stimulated by 10 ng/mL LPS for 2-6 hours before collection of macrophages and cell culture medium. Anti-sense LNATM long RNA GepmeR oligonucleotides target lnc-FAM164A1 (Sequence 5′-GGTAAGAAATAGGTTG-3′(SEQ ID NO: 52)) and nonspecific negative control oligonucleotides (Sequence 5′-AACACGTCTATACGC-3′(SEQ ID NO: 53)) were designed by Exiqon A/S (Vedbaek, Denmark). Si-RNA Oligonucleotides targeting lnc-FAM164A1 and luciferase control siRNA oligos were designed by Axolabs (Kulmback, Germany). Their sequences and chemical modifications are as follows (A, G, U, C: RNA nucleotide; a, g, u, c: 2′-O-methyl-nucleotide, s: Phosphorothioate, dT: desoxy-T residue): Luciferase control siRNA (XD-00194): Sense strand: 5′-cuuAcGcuGAGuAcuucGAdTsdT-3′ (SEQ ID NO: 54); Antisense strand: 5′-UCGAAGuACUcAGCGuAAGdTsdT-3′ (SEQ ID NO: 4). Lnc-FAM164A1 specific siRNA oligo#5 (XD-05325): 5′-ucAccAuuAucuucAuAcudTsdT-3′(SEQ ID NO: 5) Antisense strand: 5′-AGuAUGAAGAuAAUGGUGAdTsdT-3′ (SEQ ID NO: 6). Lnc-FAM164A1 specific siRNA oligo#8 (XD-05328): 5′-uguGcuAAAAuAcuGAGAudTsdT-3′ (SEQ ID NO: 7); Antisense strand: 5′-AUCUcAGuAUUUuAGcAcAdTsdT-3′ (SEQ ID NO: 8).
(§2) RNA extraction and RT-PCR. Total RNA were extracted using an Illustra RNAspin Mini kit (GE Healthcare, Piscataway, N.J.) and the genomic DNA was removed by on-column DNase I digestion at RT for 15 minutes. cDNAs were synthesized using a high capacity cDNA reverse transcription kit (Applied Biosystems, Carlsbad, Calif.). Real-time PCR was performed on a 7900HT fast real-time PCR system (Applied Biosystems). Taqman probe and primers for lnc-FAM164A1 were designed by Integrated DNA Technologies and listed as follows: Probe: 5′-/56-FAM/ATGG CCTCA/ZEN/GTTAGGACTGCTTGG/3IABkFQ/-3′ (SEQ ID NO: 9); Primer1: 5′-GATGGGTGC TGGGAGTATAAG-3′ (SEQ ID NO: 10); Primer2: 5′-[…]-3′ (SEQ ID NO: 11). Other Taqman probes for IL-1β, IL-6, IL-10, CCL2, TNF-α, and GAPDH was purchased from Life Technologies. Relative expression of each gene was normalized by GAPDH.
ELISA. Duoset ELISA kits (R&D systems, Minneapolis, Minn.) were used to detect the levels of cytokines (human and mouse CCL2, IL-6, TNF-α) in culture medium from macrophages or mouse plasma.

[2] = system: lnc-FAM164A1; experiment: Silencing of lnc-FAM164A1 by antisense and si-RNA oligonucleotides on human PBMC-derived macrophages (RT-PCR); assay type: cell-based; settings: for potency of silencing of lnc-FAM164A1: compared among 10 different siRNA oligonucleotides in human macrophages
Protocol: as §1
RNA extraction and RT-PCR. Total RNA were extracted using an Illustra RNAspin Mini kit (GE Healthcare, Piscataway, N.J.) and the genomic DNA was removed by on-column DNase I digestion at RT for 15 minutes. cDNAs were synthesized using a high capacity cDNA reverse transcription kit (Applied Biosystems, Carlsbad, Calif.). Real-time PCR was performed on a 7900HT fast real-time PCR system (Applied Biosystems). […]

[3] = system: NF-κB signaling; experiment: NF-κB inhibitor pretreatment of LPS-stimulated PBMC-derived macrophages (RT-PCR); assay type: cell-based, human; settings: 3-30 μM, dose-dependent; 30 minutes pretreatment, 10 ng/mL LPS 6 hours
Protocol: FIGS. 10A and 18B. (FIG. 10A) Time course of lnc-FAM164A1 and cytokines expression in LPS-stimulated PBMC-derived macrophages. Human PBMC-derived macrophages were stimulated with 10 ng/mL LPS for 6, 12 and 24 hours. Lnc-FAM164A1 RNA, IL-1β, IL-6 and TNF-α mRNA expression were determined by RT-PCR and normalized by GAPDH expression. (Representative results of 2 different donors). […] Human PBMC-derived macrophages were pretreated with 3-30 μM […] for 30 minutes before the stimulation with 10 ng/mL LPS for 6 hours. Lnc-FAM164A1 RNA, IL-1β, IL-6 and TNF-α mRNA expression were determined by RT-PCR and normalized by GAPDH expression (Representative data from 2 different donors).
as §2, with “Other Taqman probes for IL-1β, IL-6, IL-10, CCL2, TNF-α, and GAPDH was purchased from Life Technologies. Relative expression of each gene was normalized by GAPDH.” left out

[4] = system: human PBMC-derived macrophages; experiment: Induction of lnc-FAM164A1 expression in human PBMC-derived macrophages (RT-PCR); assay type: cell-based; settings: 10 ng/mL cytokine, 3 hours
Protocol: FIGS. 1A-1E show LPS treatment increases the expression of lnc-FAM164A1 in human macrophages, PBMCs and white blood cells in humanized Hu-CD34 NSG mice. […] Human PBMC-derived macrophages were stimulated with 10 ng/mL LPS for 3h or 6h (FIG. 1B, P<0.05 LPS vs control; n=5-6 different donors). Human PBMC was isolated from citrated whole blood derived stimulated with 10 ng/mL LPS for 6 hours ex vivo (FIG. 1C, P<0.05 LPS vs control; n=3-4 different donors). Hu-CD34 NSG mice were stimulated with 5 mg/kg of LPS for 6 hours (FIG. 1D, P<0.05, NSG control vs NSG +LPS, n=4 mice per group). Relative fold change of the lnc-FAM164A1 expression was determined by RT-PCR (FIGS. 1B-1D). […]
FIG. 9A-9C show human PBMC-derived macrophages were stimulated with 10 ng/mL human IL-6 and TNF-α for 3 hours. Relative fold change of the lnc-FAM164A1 expression was determined by RT-PCR (P<0.05 LPS vs control; n=3-4 different donors) (FIG. 9A). […] Expression of lnc-FAM164A1 RNA in liver, spleen and lung isolated from the endotoxemic mice was determined by RT-PCR (P<0.05, Spleen vs Lung; n=4 mice per group) (FIG. 9B). […] Lnc-FAM164A1 RNA, IL-1β and GAPDH mRNA expression were determined by RT-PCR and shown as the ratio of nuclear/cytoplasmic in unstimulated macrophages (Left Panel) and LPS-treated macrophages (Right Panel) (n=2 different donors). […]

[5] = LPS-stimulated human macrophages

| Compound | LPS-induced CCL2 mRNA expression and protein release [1, 5] | LPS-induced IL-6 mRNA expression and protein release [1, 5] | TNF-α mRNA [1, 5] | potency of silencing of lnc-FAM164A1 [2] | lnc-FAM164A1 expression [4] | other results |
| --- | --- | --- | --- | --- | --- | --- |
| 5′-ucAccAuuAucuucAuAcudTsdT-3′ (sense mUmCrAmCmCrAmUmUrAmUmCmUmUmCrAmUrAmCmUdT*dT; antisense rArGmUrArUrGrArArGrAmUrArArUrGrGrUrGrAdT*dT; siRNA) [#5] | decreased expression | decreased expression | No significant change | higher potency of silencing than the others |  |  |
| 5′-GGTAAGAAATAGGTTG-3′ (LNA gapmer, pattern and linkages not given here) [anti-sense oligonucleotides] | significant suppressed | significant suppressed |  |  |  | LPS-induced TNF-α mRNA expression and protein release [1, 5]: significant suppressed; expression of anti-inflammatory cytokine IL-10 ([1]; control and LPS-treated macrophages): no changes; silencing efficacy of lnc-FAM164A1 ([2]; human macrophages, FIG. 11A): at least 50% |
| 5′-uguGcuAAAAuAcuGAGAudTsdT-3′ (sense mUmGmUrGmCmUrArArArAmUrAmCmUrGrArGrAmUdT*dT; antisense rArUrCrUmCrArGmUrArUrUrUmUrArGmCrAmCrAdT*dT; siRNA) [#8] | decreased expression | decreased expression | No significant change | higher potency of silencing than the others |  |  |
| Cc1ccc(S(=O)(=O)/C=C/C#N)cc1 [Bay 11-7802] |  |  |  |  |  | transcription of cytokines (IL-1β, IL-6 and TNF-α mRNA) [3]: blocks the transcription; transcription of lnc-FAM164A1 [3]: blocks the transcription |
| TNF-α |  |  |  |  | increased the expression |  |
| IL-6: human IL-6, pro-inflammatory cytokine used as stimulus at 10 ng/mL |  |  |  |  | increased the expression |  |
